Where “and” joins values, the source holds several entries; their conditions need not be identical. Identical values can stand only once. Like-named read-outs stand apart in the source and are kept apart here.
How the values were obtained:
[1] = Whole plasma pharmacokinetics in dogs (HPLC); type: in vivo, dog; conditions: for AUC(0-inf) / half-life / Tmax / Vd / clearance: dog
Text: (§1) Br. J. Cancer (1984), 50, 291-303 Preclinical pharmacokinetics of benznidazole P. Workman', R.A.S. White2, M.I. Walton', L.N. Owen2* & P.R. Twentyman' 1MRC Clinical Oncology and Radiotherapeutics Unit, MRC Centre, Hills Road, Cambridge CB2 2QH, and 2Department of Clinical Veterinary Medicine, University of Cambridge, Madingley Road, Cambridge CB3 OES, UK. […] We have investigated the detailed pharmacokinetics of benznidazole in mice, dogs and sheep to provide a data base for the estimation of doses required for chemosensitization in man. Pharmacokinetic behaviour was linear except at high doses in mice. Absorption was fairly rapid and bioavailability was complete following both i.p. administration in mice and oral administration in dogs. Elimination t4 values were longer than for MISO, being 90 min in mice, 4-5 h in sheep and 9-11 h in dogs. At doses giving linear kinetics, peak whole plasma concentrations per administered mgkg-1 were 0.75 jigml-1 for the i.p. route in mice and 1.8jugmlP' for the oral route in dogs. Though between 39 and 59% of plasma benznidazole was bound to protein, tissue penetration was generally good. Tissue/whole plasma ratios ranged from 59-99% for transplantable mouse tumours and from 14-70% for spontaneous dog neoplasms. Nervous tissue penetration was similar to that in tumours: brain/whole plasma ratios averaged between 61 and 76% in mice and 42% in dogs, while peripheral nerve/whole plasma ratios in dogs averaged 74%. Mean liver/whole plasma ratios were 42% and 71% in BALB/c and C3H/He mouse strains respectively. Only -5% of the administered dose was excreted unchanged in the urine, indicating the likelihood of extensive metabolism. […] Enhancement of CCNU response is likely to require circulating benznidazole concentrations of 10-30 pgml-1 and we predict that these will be obtained with oral doses of 6-20 mgkg- 1 in man. […] This enhancement, or chemosensitization, is usually greater than that seen in dose-limiting normal tissues, resulting in an improved therapeutic index. Because of the relatively high doses of MISO usually required for chemosensitization in mice (see above refs), and also because of its neurotoxicity in man (Dische et al., 1977), we have been interested in finding an improved chemosensitizer. […] The lipophilic ana- logue benznidazole (N-benzyl-(2-nitroimidazolyl) acetamide, Ro 07-1051; Radanil; Roche), the structure of which is shown in Figure 1, was selected for detailed study because of its ability to *Present address: Animal Health Trust, Small Animals Centre, Lanwades Park, Kennett, Newmarket, Suffolk CB8 7PN, UK. Correspondence: P. Workman. […] These findings have been confirmed independently by Siemann et al. (1983). Although benznidazole is used quite widely in South America to treat patients with the trypanosomal infection Chagas' disease or with mucotaneous Leishmaniasis (Barclay et al., 1978; Cerisola et al., 1978; Coura et al., 1978; Fava et al., 1978), apart from our preliminary studies (White et al., 1982) the only published data on its pharmaco- kinetics are for human plasma concentrations measured by polarography (Raaflub & Ziegler, 1979; Raaflub, 1980). Here we describe the pharmacokinetics of benznidazole in the mouse, sheep and dog, as determined by high-performance liquid chromatography (HPLC). […] The Macmillan Press Ltd., 1984 292 P. WORKMAN et al. particularly on plasma and tumour concentrations, have been used as a basis for the estimation of the benznidazole doses required in a Phase I trial of benznidazole plus CCNU, at present ongoing in our Unit. Materials and methods Animals and tumours Adult inbred male BALB/c mice were obtained from OLAC (Southern) Ltd. (Bicester, UK) and adult inbred C3H/He mice of both sexes from OLAC and our own breeding colony. Mice were housed in plastic cages on sawdust bedding made from soft white woods, and allowed laboratory chow and water ad lib. They were used at 20-35 g body wt.

plasma proteins = test: In vivo plasma protein binding in dogs (plasma ultrafiltrate); conditions: dog; for fraction unbound: plasma
Text: as §1

[2] = collie crossbred, plasma, iv, 5 mg/kg, dog C, 5 mg kg-1 i.v.
[3] = collie crossbred, plasma, iv, 5 mg/kg, dog D, 5 mg kg-1 i.v.
[4] = dog A, collie crossbred 18 kg, 25 mg kg-1 oral
[5] = dog B, collie crossbred 28 kg, 25 mg kg-1 oral

AUC(0-inf) ([1]; beagle, plasma, po, 50 mg/kg, dog E, 50 mg kg-1 oral): 760 µg·h/mL | half-life ([1]; beagle, plasma, po, 50 mg/kg, dog E, 50 mg kg-1 oral, 95% confidence limits 5.3-6.1, read-out: elimination half-life t1/2β (converted)): 5.7 h | AUC(0-inf) ([1]; beagle, plasma, po, 50 mg/kg, dog F, 50 mg kg-1 oral): 707 µg·h/mL | half-life ([1]; beagle, plasma, po, 50 mg/kg, dog F, 50 mg kg-1 oral, 95% confidence limits 6.4-7.3, read-out: elimination half-life t1/2β (converted)): 6.8 h | Tmax ([1]; collie crossbred, beagle, plasma, dogs, oral administration, usual range, read-out: time to peak plasma concentration): 1 to 5 h | Vd ([1]; collie crossbred, plasma ultrafiltrate (unbound drug), iv, 5 mg/kg, dog C, 5 mg kg-1 i.v., read-out: volume of distribution (Vd area), unbound drug data): 2.05 L/kg | Vd ([1]; collie crossbred, plasma ultrafiltrate (unbound drug), iv, 5 mg/kg, dog D, 5 mg kg-1 i.v., read-out: volume of distribution (Vd area), unbound drug data): 1.87 L/kg | half-life ([1]; collie crossbred, plasma, dogs (large crossbred), summary value, read-out: elimination t1/2): 9 to 11 h | AUC(0-inf) [1, 2]: 105 µg·h/mL | clearance [1, 2]: 0.793 mL/min/kg | half-life ([1]; collie crossbred, plasma, iv, 5 mg/kg, dog C, 5 mg kg-1 i.v., 95% confidence limits 7.1-8.1, read-out: elimination half-life t1/2β (converted)): 7.6 h | Vd ([1]; collie crossbred, plasma, iv, 5 mg/kg, dog C, 5 mg kg-1 i.v., read-out: volume of distribution (Vd area), total plasma data): 0.52 L/kg | AUC(0-inf) [1, 3]: 138 µg·h/mL | clearance [1, 3]: 0.603 mL/min/kg | half-life ([1]; collie crossbred, plasma, iv, 5 mg/kg, dog D, 5 mg kg-1 i.v., 95% confidence limits 9.2-11.4, read-out: elimination half-life t1/2β (converted)): 10.2 h | Vd ([1]; collie crossbred, plasma, iv, 5 mg/kg, dog D, 5 mg kg-1 i.v., read-out: volume of distribution (Vd area), total plasma data): 0.53 L/kg | half-life ([1]; collie crossbred, plasma, iv, 5 mg/kg, dogs C and D, 5 mg kg-1 i.v., read-out: distribution phase half-life t1/2α (estimated by back-stripping, about)): 0.167 to 0.417 h | AUC(0-inf) ([1]; collie crossbred, plasma, po, 12.5 mg/kg, dog C, 12.5 mg kg-1 oral): 419 µg·h/mL | half-life ([1]; collie crossbred, plasma, po, 12.5 mg/kg, dog C, 12.5 mg kg-1 oral, 95% confidence limits 9.7-13.3, read-out: elimination half-life t1/2β (converted)): 11.2 h | AUC(0-inf) ([1]; collie crossbred, plasma, po, 12.5 mg/kg, dog D, 12.5 mg kg-1 oral): 450 µg·h/mL | half-life ([1]; collie crossbred, plasma, po, 12.5 mg/kg, dog D, 12.5 mg kg-1 oral, 95% confidence limits 17.3-22.0, read-out: elimination half-life t1/2β (apparent) (converted)): 19.4 h | AUC(0-inf) ([1]; collie crossbred, plasma, po, 25 mg/kg, dog A, 25 mg kg-1 oral, samples collected up to 9 h only): ~800 µg·h/mL | AUC(0-inf) ([1]; collie crossbred, plasma, po, 25 mg/kg, dog B, 25 mg kg-1 oral, samples collected up to 9 h only): ~800 µg·h/mL | AUC(0-inf) ([1]; collie crossbred, plasma, po, 25 mg/kg, dog C, 25 mg kg-1 oral): 687 µg·h/mL | half-life ([1]; collie crossbred, plasma, po, 25 mg/kg, dog C, 25 mg kg-1 oral, 95% confidence limits 8.9-10.6, read-out: elimination half-life t1/2β (converted)): 9.7 h | AUC(0-inf) ([1]; collie crossbred, plasma, po, 25 mg/kg, dog D, 25 mg kg-1 oral): 804 µg·h/mL | half-life ([1]; collie crossbred, plasma, po, 25 mg/kg, dog D, 25 mg kg-1 oral, 95% confidence limits 8.9-10.6, read-out: elimination half-life t1/2β (converted)): 9.7 h | half-life ([1]; collie crossbred, plasma, po, larger crossbred dogs, oral administration, read-out: elimination t1/2, range): 9.5 to 11.2 h | peak time [1, 4]: 5 h | peak whole plasma concentration [1, 4]: 48.4 µg/mL | peak time [1, 5]: 3 h | peak whole plasma concentration [1, 5]: 52.2 µg/mL | peak time ([1]; dog C, 5 mg kg-1 i.v.): 0.083 h | peak time ([1]; dog C, 12.5 mg kg-1 oral): 1 h | peak time ([1]; dog C, 25 mg kg-1 oral): 5 h | peak whole plasma concentration ([1]; dog C, collie crossbred 28 kg, 5 mg kg-1 i.v.): 12.7 µg/mL | peak whole plasma concentration ([1]; dog C, collie crossbred 28 kg, 12.5 mg kg-1 oral): 26.5 µg/mL | peak whole plasma concentration ([1]; dog C, collie crossbred 28 kg, 25 mg kg-1 oral): 38.9 µg/mL | peak time ([1]; dog D, 5 mg kg-1 i.v.): 0.083 h | peak time ([1]; dog D, 12.5 mg kg-1 oral): 12 h | peak time ([1]; dog D, 25 mg kg-1 oral): 3 h | peak whole plasma concentration ([1]; dog D, collie crossbred 20 kg, 5 mg kg-1 i.v.): 12.4 µg/mL | peak whole plasma concentration ([1]; dog D, collie crossbred 20 kg, 12.5 mg kg-1 oral (slow, prolonged absorption)): 13.1 µg/mL | peak whole plasma concentration ([1]; dog D, collie crossbred 20 kg, 25 mg kg-1 oral): 46.5 µg/mL | peak whole plasma concentration ([1]; dog E, beagle 9 kg, 50 mg kg-1 oral): 59.8 µg/mL | peak time ([1]; dog F, 50 mg kg-1 oral): 3 h | peak whole plasma concentration ([1]; dog F, beagle 10 kg, 50 mg kg-1 oral): 54.8 µg/mL | Tmax ([1]; plasma, po, dogs, discussion summary, read-out: time of peak concentrations after oral dosing): 3 to 5 h | overall oral bioavailability (dose-normalised AUC0-∞ oral vs i.v.) ([1]; dogs C and D): about 130% | peak concentrations readily achieved ([1]; dogs, oral doses of 25-50 mg kg-1): 50 µg/mL | average peak whole plasma concentration ([1]; large crossbred dogs, 12.5 mg kg-1 oral): 20 µg/mL | average peak whole plasma concentration ([1]; large crossbred dogs, 25 mg kg-1 oral): 47 µg/mL | mean peak whole plasma concentration per administered mg kg-1 ([1]; large crossbred dogs, oral route (s.e., n=6)): 1.8 µg ml-1 and 1.77 + 0.17 µg ml-1 | fraction unbound (plasma proteins; beagle, po, 50 mg kg-1, dog E, 50 mg kg-1 oral, full time course, read-out: protein binding (mean+s.e., n=8) (converted)): 0.45 | fraction unbound (plasma proteins; beagle, po, 50 mg kg-1, dog F, 50 mg kg-1 oral, full time course, read-out: protein binding (mean+s.e., n=8) (converted)): 0.48 | fraction unbound (plasma proteins; collie crossbred, beagle, iv, dogs, apart from the two i.v. time courses, read-out: in vivo protein binding, range): 0.41 to 0.48 | fraction unbound (plasma proteins; collie crossbred, iv, 5 mg kg-1, dog C, 5 mg kg-1 i.v., full time course, read-out: protein binding (mean+s.e., n=8) (converted)): 0.28 | fraction unbound (plasma proteins; collie crossbred, iv, 5 mg kg-1, dog D, 5 mg kg-1 i.v., full time course, read-out: protein binding (mean+s.e., n=8) (converted)): 0.26 | fraction unbound (plasma proteins; collie crossbred, po, 25 mg kg-1, dog A, 25 mg kg-1 oral, mean of 4 and 5 h values, read-out: protein binding (converted)): 0.47 | fraction unbound (plasma proteins; collie crossbred, po, 25 mg kg-1, dog B, 25 mg kg-1 oral, mean of 4 and 5 h values, read-out: protein binding (converted)): 0.41 | fraction unbound (plasma proteins; collie crossbred, po, 25 mg kg-1, dog C, 25 mg kg-1 oral, mean of 4 and 5 h values, read-out: protein binding (converted)): 0.45 | fraction unbound (plasma proteins; collie crossbred, po, 25 mg kg-1, dog D, 25 mg kg-1 oral, mean of 4 and 5 h values, read-out: protein binding (converted)): 0.47 | binding to plasma proteins (plasma proteins; discussion summary): 59%
Compound: O=C(Cn1ccnc1[N+](=O)[O-])NCc1ccccc1 [benznidazole, N-benzyl-(2-nitroimidazolyl) acetamide]

From PMC1976805, “Preclinical pharmacokinetics of benznidazole” (British Journal of Cancer, 1984)
